Results on 1 compound are retold here after patent US7419780B2, “Methods and assays for screening protein targets” (The Trustees of Columbia University in the City of New York, priority 2000, dated 2008).

Common to all, as to assay type: cell-based, S. cerevisiae
Holding throughout (settings): 1 uM small molecule, difference to activity without small molecule, average of two trials

Assay [1] addresses T1, LexA (GSG)2rGR2 / B42 (GSG)2eDHFR (UniProt P06536+P0ABQ4, C656G/F620S).
T1 construct: rat Glucocorticoid Receptor (aa 524-795) with point mutations; expressed in transfected cells; host or cells: S. cerevisiae FY250
T1 sequence (P06536 524-795 F620S/C656G limits assumed): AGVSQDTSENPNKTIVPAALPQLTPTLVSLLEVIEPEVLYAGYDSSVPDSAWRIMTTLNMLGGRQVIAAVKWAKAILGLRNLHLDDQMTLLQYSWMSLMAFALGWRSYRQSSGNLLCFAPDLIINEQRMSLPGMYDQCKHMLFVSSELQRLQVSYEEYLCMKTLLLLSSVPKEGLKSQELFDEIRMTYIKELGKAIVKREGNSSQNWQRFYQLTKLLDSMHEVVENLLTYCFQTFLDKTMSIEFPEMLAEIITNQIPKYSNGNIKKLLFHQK
T1 sequence (P0ABQ4 1-159): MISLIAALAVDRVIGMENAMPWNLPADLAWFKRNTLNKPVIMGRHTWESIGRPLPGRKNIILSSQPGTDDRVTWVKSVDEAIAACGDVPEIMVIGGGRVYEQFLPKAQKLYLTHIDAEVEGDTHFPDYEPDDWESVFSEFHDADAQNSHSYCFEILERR
The assay can be described thus: β-galactosidase activity assay, strain V510Y. The source says: (§1) Table III explains the components of each strain. Each strain was constructed from the parent yeast strain FY250 and also contains the pMW106 plasmid, which has the LacZ reporter gene that is turned on only in when the LexA DNA binding domain and the B42 activation are brought in tot he vicinity of each other. We use several different strains because we use DHFR from two different species, mDHFR is from murine, while eDHFR is from E. coli. We are asl oable to switch the small moleculebinding domains. For example, the strain containing LexA-eDHFR with B42-rGH2 is a different strain and behaves differently from the strain containing LexA-rGR2 with B42-eDHFR. We also put in short 6 amino acid linkers between the two domains of our protein chimeras and thus these are different strain as well.
(§2) The results in Table IV are averages of two separate trials. Each strain was examined with small molecules and without small molecules. The absolute activity is given as the β-galactisidase activity […]. The average β-galactosidse activity for a strain without small molecule (i.e. the negative control) was about 100 β-galactosidase units.

Assay [2] addresses T2, LexA (GSG)2mDHFR / B42 (GSG)rGR2 (UniProt P00375+P06536, C656G/F620S).
T2 construct: rat Glucocorticoid Receptor (aa 524-795) with point mutations; expressed in transfected cells; host or cells: S. cerevisiae FY250
T2 sequence (P00375 1-187): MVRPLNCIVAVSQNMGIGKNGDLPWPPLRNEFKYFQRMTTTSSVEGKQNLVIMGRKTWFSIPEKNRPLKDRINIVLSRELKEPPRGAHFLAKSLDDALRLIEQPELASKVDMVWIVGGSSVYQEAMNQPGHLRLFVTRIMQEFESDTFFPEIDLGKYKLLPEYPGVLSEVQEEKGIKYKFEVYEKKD
T2 sequence (P06536 524-795 F620S/C656G limits assumed): T1 sequence (P06536 524-795 F620S/C656G limits assumed)
Description: β-galactosidase activity assay, strain V504Y.
From the text: as §1, §2

The target in assay [3] is T3, LexA mDHFR / B42 gly6rGR2 (UniProt P00375+P06536, C656G/F620S).
T3 construct: rat Glucocorticoid Receptor (aa 524-795) with point mutations; expressed in transfected cells; host or cells: S. cerevisiae FY250
T3 sequence (P00375 1-187): T2 sequence (P00375 1-187)
T3 sequence (P06536 524-795 F620S/C656G limits assumed): T1 sequence (P06536 524-795 F620S/C656G limits assumed)
The assay can be described thus: β-galactosidase activity assay, strain V496Y.
From the text: as §1, §2

The target in assay [4] is T4, LexA eDHFR / B42 gly6rGR2 (UniProt P06536+P0ABQ4, C656G/F620S).
T4 construct: rat Glucocorticoid Receptor (aa 524-795) with point mutations; expressed in transfected cells; host or cells: S. cerevisiae FY250
T4 sequence (P0ABQ4 1-159): T1 sequence (P0ABQ4 1-159)
T4 sequence (P06536 524-795 F620S/C656G limits assumed): T1 sequence (P06536 524-795 F620S/C656G limits assumed)
Description: β-galactosidase activity assay, strain V375Y.
From the text: as §1, §2

The target of assay [5] is T5, LexA (GSG)2rGR2 / B42 eDHFR (UniProt P06536+P0ABQ4, C656G/F620S).
T5 construct: expressed in transfected cells; host or cells: S. cerevisiae FY250 with pMW106 lacZ reporter
T5 sequence (P06536 524-795 F620S/C656G limits assumed): T1 sequence (P06536 524-795 F620S/C656G limits assumed)
T5 sequence (P0ABQ4 1-159): T1 sequence (P0ABQ4 1-159)
Description: β-galactosidase activity assay, strain V506Y.
From the text: as §1, §2

The target of a further assay is T6, LexA rGR2 / B42 mDHFR (UniProt P00375+P06536, C656G/F620S).
T6 construct: rat Glucocorticoid Receptor (aa 524-795) with point mutations; expressed in transfected cells; host or cells: S. cerevisiae FY250
T6 sequence (P06536 524-795 F620S/C656G limits assumed): T1 sequence (P06536 524-795 F620S/C656G limits assumed)
T6 sequence (P00375 1-187): T2 sequence (P00375 1-187)
Description: β-galactosidase activity assay, strain V507Y.
From the text: as §1, §2

In assay [6] the target is T7, LexA rGR2 / B42 (GSG)2eDHFR (UniProt P06536+P0ABQ4, C656G/F620S).
T7 construct: expressed in transfected cells; host or cells: S. cerevisiae FY250 with pMW106 lacZ reporter
T7 sequence (P06536 524-795 F620S/C656G limits assumed): T1 sequence (P06536 524-795 F620S/C656G limits assumed)
T7 sequence (P0ABQ4 1-159): T1 sequence (P0ABQ4 1-159)
The assay can be described thus: β-galactosidase activity assay, strain V509Y.
From the text: as §1, §2

The target in assay [7] is T8, LexA (GSG)2eDHFR / B42 gly6rGR2 (UniProt P06536+P0ABQ4, C656G/F620S).
T8 construct: rat Glucocorticoid Receptor (aa 524-795) with point mutations; expressed in transfected cells; host or cells: S. cerevisiae FY250
T8 sequence (P0ABQ4 1-159): T1 sequence (P0ABQ4 1-159)
T8 sequence (P06536 524-795 F620S/C656G limits assumed): T1 sequence (P06536 524-795 F620S/C656G limits assumed)
Description: β-galactosidase activity assay, strain V499Y.
From the text: as §1, §2

A further assay concerns the target T9, LexA rGR2 / B42 eDHFR (UniProt P06536+P0ABQ4, C656G/F620S).
T9 construct: rat Glucocorticoid Receptor (aa 524-795) with point mutations; expressed in transfected cells; host or cells: S. cerevisiae FY250
T9 sequence (P06536 524-795 F620S/C656G limits assumed): T1 sequence (P06536 524-795 F620S/C656G limits assumed)
T9 sequence (P0ABQ4 1-159): T1 sequence (P0ABQ4 1-159)
Description: β-galactosidase activity assay, strain V505Y.
From the text: as §1, §2

The next assay has as its target T10, LexA mDHFR / B42 rGR2 (UniProt P00375+P06536, C656G/F620S).
T10 construct: rat Glucocorticoid Receptor (aa 524-795) with point mutations; expressed in transfected cells; host or cells: S. cerevisiae FY250
T10 sequence (P00375 1-187): T2 sequence (P00375 1-187)
T10 sequence (P06536 524-795 F620S/C656G limits assumed): T1 sequence (P06536 524-795 F620S/C656G limits assumed)
Description: β-galactosidase activity assay, strain V495Y.
From the text: as §1, §2

Regarding `C[C@@H]1C[C@H]2C3CCC4=CC(=O)C=C[C@]4(C)[C@@]3(F)[C@@H](O)C[C@]2(C)[C@@]1(O)C(=O)NCCSCCCCCCCCCCSCC[C@H](NC(=O)c1ccc(N(C)Cc2cnc3nc(N)nc(N)c3n2)cc1)C(=O)O` (stereo partly shown) [D10M], the B-gal activity is 2314 β-galactosidase units in [1]; 556 β-galactosidase units in [2]; 740 β-galactosidase units in assay [3]; 9993 β-galactosidase units in [4]; 2561 β-galactosidase units in assay [5]; −14 β-galactosidase units on LexA rGR2 / B42 mDHFR. The B-gal activity in assay [6] is 2028 β-galactosidase units; in assay [7], 4013 β-galactosidase units; at LexA rGR2 / B42 eDHFR, 1160 β-galactosidase units; at LexA mDHFR / B42 rGR2, 513 β-galactosidase units.
